# Paper PMC10797614, “MYC-Targeting Inhibitors Generated from a Stereodiversified Bicyclic Peptide Library” (Journal of the American Chemical Society, 2024)
# Test: tandem ring-opening/ring-closing metathesis (ROM-RCM) of side-chain norbornene with two Glu allyl esters to bicyclic peptide; Hoveyda-Grubbs 2nd gen (M720), two portions (library procedure)
# Conditions: the molecule shown is the open-chain precursor; 28-membered ring; 1,2-dichloroethane; resin; 70.0 °C
row,Structure (SMILES),"ring closure, conversion by HPLC (% (semiquantitative, mass spectrometry))"
1,C=CCOC(=O)CC[C@H](NC(=O)[C@@H]1CCCN1C(=O)[C@H](CC(C)C)NC(=O)[C@H](C)NC(=O)[C@H](CCCCNC(=O)[C@H]1C[C@H]2C=C[C@@H]1C2)NC(=O)[C@@H](NC(=O)[C@@H](NC(=O)[C@H](Cc1ccccc1)NC(=O)[C@H](CCC(=O)OCC=C)NC(=O)OCC1c2ccccc2-c2ccccc21)[C@@H](C)CC)C(C)C)C(N)=O,2
2,C=CCOC(=O)CC[C@H](NC(=O)[C@H](CC(C)C)NC(=O)[C@@H]1CCCN1C(=O)[C@H](C)NC(=O)[C@H](CCCCNC(=O)[C@H]1C[C@H]2C=C[C@@H]1C2)NC(=O)[C@@H](NC(=O)[C@@H](NC(=O)[C@H](Cc1ccccc1)NC(=O)[C@H](CCC(=O)OCC=C)NC(=O)OCC1c2ccccc2-c2ccccc21)[C@@H](C)CC)C(C)C)C(N)=O,45
3,C=CCOC(=O)CC[C@H](NC(=O)[C@H](CC(C)C)NC(=O)[C@H](C)NC(=O)[C@@H]1CCCN1C(=O)[C@H](CCCCNC(=O)[C@@H]1C[C@H]2C=C[C@@H]1C2)NC(=O)[C@@H](NC(=O)[C@@H](NC(=O)[C@H](Cc1ccccc1)NC(=O)[C@H](CCC(=O)OCC=C)NC(=O)OCC1c2ccccc2-c2ccccc21)[C@@H](C)CC)C(C)C)C(N)=O,14
4,C=CCOC(=O)CC[C@H](NC(=O)[C@H](CC(C)C)NC(=O)[C@@H]1CCCN1C(=O)[C@H](C)NC(=O)[C@H](CCCCNC(=O)[C@@H]1C[C@H]2C=C[C@@H]1C2)NC(=O)[C@@H](NC(=O)[C@@H](NC(=O)[C@H](Cc1ccccc1)NC(=O)[C@H](CCC(=O)OCC=C)NC(=O)OCC1c2ccccc2-c2ccccc21)[C@@H](C)CC)C(C)C)C(N)=O,10
5,C=CCOC(=O)CC[C@H](NC(=O)[C@@H]1CCCN1C(=O)[C@H](CC(C)C)NC(=O)[C@H](C)NC(=O)[C@H](CCCCNC(=O)[C@@H]1C[C@H]2C=C[C@@H]1C2)NC(=O)[C@@H](NC(=O)[C@@H](NC(=O)[C@H](Cc1ccccc1)NC(=O)[C@H](CCC(=O)OCC=C)NC(=O)OCC1c2ccccc2-c2ccccc21)[C@@H](C)CC)C(C)C)C(N)=O,2
6,C=CCOC(=O)CC[C@H](NC(=O)[C@H](CC(C)C)NC(=O)[C@H](C)NC(=O)[C@@H]1CCCN1C(=O)[C@H](CCCCNC(=O)[C@H]1C[C@H]2C=C[C@@H]1C2)NC(=O)[C@@H](NC(=O)[C@@H](NC(=O)[C@H](Cc1ccccc1)NC(=O)[C@H](CCC(=O)OCC=C)NC(=O)OCC1c2ccccc2-c2ccccc21)[C@@H](C)CC)C(C)C)C(N)=O,47
7,C=CCOC(=O)CC[C@H](NC(=O)[C@H](CC(C)C)NC(=O)[C@H](C)NC(=O)[C@H](CCCCNC(=O)[C@@H]1C[C@H]2C=C[C@@H]1C2)NC(=O)[C@@H](NC(=O)[C@@H](NC(=O)[C@H](Cc1ccccc1)NC(=O)[C@H](CCC(=O)OCC=C)NC(=O)OCC1c2ccccc2-c2ccccc21)[C@@H](C)CC)C(C)C)C(N)=O,18
8,C=CCOC(=O)CC[C@H](NC(=O)[C@H](CC(C)C)NC(=O)[C@H](C)NC(=O)[C@H](CCCCNC(=O)[C@H]1C[C@H]2C=C[C@@H]1C2)NC(=O)[C@@H](NC(=O)[C@@H](NC(=O)[C@H](Cc1ccccc1)NC(=O)[C@H](CCC(=O)OCC=C)NC(=O)OCC1c2ccccc2-c2ccccc21)[C@@H](C)CC)C(C)C)C(N)=O,65

# Same assay, conditions: the molecule shown is the open-chain precursor; 31-membered ring; 1,2-dichloroethane; resin; 70.0 °C
row,Structure (SMILES),"ring closure, conversion by HPLC (% (semiquantitative, mass spectrometry))"
1,C=CCOC(=O)CC[C@H](NC(=O)[C@H](CC(C)C)NC(=O)[C@H](C)NC(=O)[C@H](CCCCNC(=O)[C@H]1C[C@H]2C=C[C@@H]1C2)NC(=O)[C@@H]1CCCN1C(=O)[C@@H](NC(=O)[C@@H](NC(=O)[C@H](Cc1ccccc1)NC(=O)[C@H](CCC(=O)OCC=C)NC(=O)OCC1c2ccccc2-c2ccccc21)[C@@H](C)CC)C(C)C)C(N)=O,34
2,C=CCOC(=O)CC[C@H](NC(=O)[C@H](CC(C)C)NC(=O)[C@H](C)NC(=O)[C@H](CCCCNC(=O)[C@@H]1C[C@H]2C=C[C@@H]1C2)NC(=O)[C@@H](NC(=O)[C@@H](NC(=O)[C@H](Cc1ccccc1)NC(=O)[C@@H]1CCCN1C(=O)[C@H](CCC(=O)OCC=C)NC(=O)OCC1c2ccccc2-c2ccccc21)[C@@H](C)CC)C(C)C)C(N)=O,22
3,C=CCOC(=O)CC[C@H](NC(=O)[C@H](CC(C)C)NC(=O)[C@H](C)NC(=O)[C@H](CCCCNC(=O)[C@H]1C[C@H]2C=C[C@@H]1C2)NC(=O)[C@@H](NC(=O)[C@@H](NC(=O)[C@@H]1CCCN1C(=O)[C@H](Cc1ccccc1)NC(=O)[C@H](CCC(=O)OCC=C)NC(=O)OCC1c2ccccc2-c2ccccc21)[C@@H](C)CC)C(C)C)C(N)=O,79
4,C=CCOC(=O)CC[C@H](NC(=O)[C@H](CC(C)C)NC(=O)[C@H](C)NC(=O)[C@H](CCCCNC(=O)[C@H]1C[C@H]2C=C[C@@H]1C2)NC(=O)[C@@H](NC(=O)[C@@H]1CCCN1C(=O)[C@@H](NC(=O)[C@H](Cc1ccccc1)NC(=O)[C@H](CCC(=O)OCC=C)NC(=O)OCC1c2ccccc2-c2ccccc21)[C@@H](C)CC)C(C)C)C(N)=O,80
5,C=CCOC(=O)CC[C@H](NC(=O)[C@H](CC(C)C)NC(=O)[C@H](C)NC(=O)[C@H](CCCCNC(=O)[C@@H]1C[C@H]2C=C[C@@H]1C2)NC(=O)[C@@H](NC(=O)[C@@H](NC(=O)[C@@H]1CCCN1C(=O)[C@H](Cc1ccccc1)NC(=O)[C@H](CCC(=O)OCC=C)NC(=O)OCC1c2ccccc2-c2ccccc21)[C@@H](C)CC)C(C)C)C(N)=O,74
6,C=CCOC(=O)CC[C@H](NC(=O)[C@H](CC(C)C)NC(=O)[C@H](C)NC(=O)[C@H](CCCCNC(=O)[C@@H]1C[C@H]2C=C[C@@H]1C2)NC(=O)[C@@H]1CCCN1C(=O)[C@@H](NC(=O)[C@@H](NC(=O)[C@H](Cc1ccccc1)NC(=O)[C@H](CCC(=O)OCC=C)NC(=O)OCC1c2ccccc2-c2ccccc21)[C@@H](C)CC)C(C)C)C(N)=O,25
7,C=CCOC(=O)CC[C@H](NC(=O)[C@H](CC(C)C)NC(=O)[C@H](C)NC(=O)[C@H](CCCCNC(=O)[C@H]1C[C@H]2C=C[C@@H]1C2)NC(=O)[C@@H](NC(=O)[C@@H](NC(=O)[C@H](Cc1ccccc1)NC(=O)[C@@H]1CCCN1C(=O)[C@H](CCC(=O)OCC=C)NC(=O)OCC1c2ccccc2-c2ccccc21)[C@@H](C)CC)C(C)C)C(N)=O,55
8,C=CCOC(=O)CC[C@H](NC(=O)[C@H](CC(C)C)NC(=O)[C@H](C)NC(=O)[C@H](CCCCNC(=O)[C@@H]1C[C@H]2C=C[C@@H]1C2)NC(=O)[C@@H](NC(=O)[C@@H]1CCCN1C(=O)[C@@H](NC(=O)[C@H](Cc1ccccc1)NC(=O)[C@H](CCC(=O)OCC=C)NC(=O)OCC1c2ccccc2-c2ccccc21)[C@@H](C)CC)C(C)C)C(N)=O,14
